Columns and labels:
[1] = system: HIV in PBMCs from HIV-infected donors on suppressive cART; test: Activation of HIV by Example 49 ex vivo in PBMCs (Example 210); type: cell-based, human; conditions: N = 18 donors, day 4
Procedure: PBMCs from 18 HIV-infected donors (Donor IDs 152-169) on suppressive cART were isolated, as described previously in Materials and Methods (PBMC Isolation), and immediately added to tissue culture plates pre-equilibrated at 37° C. with media containing DMSO or the compound of Example 49 (GS-9620) at 0.1 uM or 1.0 uM. At day 4 after treatment, cell-free culture supernatants were collected and HIV viral RNA was quantitated using the automated COBAS® AmpliPrep/COBAS® TaqMan® HIV-1 Test, v2.0 system (Roche Diagnostics, Indianapolis, Ind.), as described previously in Materials and Methods (HIV-1 Activation Assay). Geometric mean fold HIV activations from three independent wells for each donor and each condition were expressed as a ratio of HIV-1 RNA copies/ml detected in culture supernatants from TLR7 agonist treated and DMSO treated wells. Fold HIV activation values were plotted using GraphPad Prism software (GraphPad, San Diego, Calif.) and can be seen in FIG. 7. The dashed line indicates 2-fold induction.

[2] = system: polyfunctional proliferating CD8 T cells (CFSE low, IFNg+, TNFa+); test: Induction of HIV-specific polyfunctional CD8 T cells ex vivo (Example 216); type: cell-based, human; conditions: PBMCs from 5 HIV-infected donors, HIV peptide pools
Procedure: PBMCs from 5 HIV-infected donors (Donor IDs 178-180 and 182-183) on suppressive cART were isolated, as described previously, and stained with carboxyfluorescein succinimiyl ester (CFSE). PBMC cultures were treated with DMSO or the compound of Example 49 (GS-9620) at 0.1 or 1 uM. Cultures were incubated at 37° C. for 2 days and treated with 500 ng/ml 15-mer peptide pools derived from overlapping HIV gag, pol, nef, and env consensus peptides (JPT Peptide Technologies GmbH). Cells were incubated at 37° C. for 8 days. Cultures were split into duplicate sets and stained in dulbecco's phosphate buffered saline (DPBS) with LIVE/DEAD Fixable Aqua Dead Cell Stain (Life Technologies). The immune recall response was performed as follows. One culture set was treated with the same HIV peptide pools and the other set was treated with 500 ng/ml CMV/EBV/Flu/Tetanus (CEFT) peptides (JPT Peptide Technologies GmbH). After one hour at 37° C., cultures were treated with 0.7 μl GolgiStop (BD Biosciences) containing monensin and 1 μl GolgiPlug (BD Biosciences) containing brefeldin A. Cultures were incubated for 3 additional hours at 37° C. and stained for 15 minutes with anti-CD4-v450, anti-CD3-AlexaFlour 700, and anti CD8-APC-H7 (BD Biosciences). Cultures were fixed with IC Fixation Buffer (eBioscience) and permeabilized with Permeabilization Buffer (eBioscience). […]

[3] = system: polyfunctional proliferating CD8 T cells (CFSE low, IFNg+, TNFa+); test: Induction of HIV-specific polyfunctional CD8 T cells by combination with an IDO1 inhibitor (Example 217); type: cell-based, human; conditions: 0.1 uM; PBMCs from 4 HIV-infected donors; 8 days
Procedure: PBMCs from 4 HIV-infected donors (Donor IDs 180-183) on suppressive cART were isolated, as described previously, stained with CFSE, and treated with 500 ng/ml 15-mer peptide pools derived from overlapping HIV gag, pol, nef, and env consensus peptides (JPT Peptide Technologies GmbH). PBMC cultures were treated with DMSO or the compound of Example 49 (GS-9620) at 0.1 uM. In some cultures treated with Example 49, the IDO1 small molecule inhibitor, INCB024360, was combined at 2 μM. Cells were incubated at 37° C. for 8 days, then split into duplicate sets and stained in DPBS with LIVE/DEAD Fixable Aqua Dead Cell Stain (Life Technologies). The immune recall response was performed as previously described. FACS was performed on a LSR Fortessa (BD Biosciences) and data analysis was done with FlowJo software (TreeStar). Data was plotted and statistical analysis was done with GraphPad Prism software (GraphPad).

[4] = system: simian immunodeficiency virus (SIV); test: TLR7 modulating compound in SIV+ viremic rhesus at chronic set point: plasma viral load by quantitative RT-PCR (Example 203); type: in vivo, rhesus macaques
Procedure: Five chronically infected, SIV^+ rhesus macaques were either treated with the compound of Example 4 (n=3 animals) or with dosing vehicle (placebo, n=2 animals) in a multiple-dose, dose escalation, placebo controlled study. […] The animals were not administered combination antiretroviral therapy during any part of the study.
The animals were dosed once weekly by oral gavage (via nasogastric tube) with either the compound of Example 4 or placebo. Three animals were administered the compound of Example 4, prepared as described in Example 201. The first week, 1 mL/kg of the 0.1 mg/mL formulation was administered, corresponding to a dose of 0.1 mg/kg. The second week, 1 mL/kg of the 0.2 mg/mL formulation was administered, corresponding to a dose of 0.2 mg/kg. On weeks three through five, 1 mL/kg of the 0.3 mg/mL formulation was administered, corresponding to a dose of 0.3 mg/kg. Each week, two animals (placebo group) were administered the dosing vehicle as described in Example 201 at 1 mL/kg.
Each formulation of Example 201 or dosing vehicle only (placebo) was used fresh and thawed to room temperature prior to dosing. Plasma viral loads (expressed as SIV RNA copies per mL of plasma) were determined by quantitative RT-PCR of the SIV RNA measuring the gag gene transcripts at various times throughout the study for animals administered the compound of Example 4 and the placebo animals. […]

SMILES	Fold geometric mean (HIV activation) ([1]; 100 nM) [fold]	Fold range (HIV activation) ([1]; 100 nM)	N (%) with ≥2-fold activation ([1]; 100 nM)	Fold geometric mean (HIV activation) ([1]; 1,000 nM) [fold]	Fold range (HIV activation) ([1]; 1,000 nM)	N (%) with ≥2-fold activation ([1]; 1,000 nM)	Fold geometric mean (HIV activation) ([1]; 100 and/or 1,000 nM) [fold]	Fold range (HIV activation) ([1]; 100 and/or 1,000 nM)	N (%) with ≥2-fold activation ([1]; 100 and/or 1,000 nM)	increase of mean level of polyfunctional proliferating CD8 T cells compared to DMSO ([2]; 0.1 uM, p<0.05) [fold]	increase of mean level of polyfunctional proliferating CD8 T cells compared to DMSO ([2]; 1 uM, p<0.005) [fold]	increase of mean level of polyfunctional proliferating CD8 T cells compared to DMSO [3] [fold]	plasma viral load ([4]; animal with the lowest chronic set point, undetectable for at least 100 days following the last dose (FIG. 1)) [RNA copies/mL]	sustained decrease in viral load set point compared to pre-dose ([4]; second animal, log10 RNA copies, maintained at least 100 days following the last dose (FIG. 2))
CCCCOc1nc(N)c2c(n1)N(Cc1cccc(CN3CCCC3)c1)CC(=O)N2 [Example 49]	9.3	2.7-26.6 fold	10 (56) N (%)	6.5	2.0-21.5 fold	11 (61) N (%)	9.1	2.0-26.6 fold	13 (72) N (%)	9.0	7.5	2.9	–	–
CCCCOc1nc(N)c2c(n1)N(Cc1ccc(CN3CCCC3)cc1)CC(=O)N2 [Example 4]	–	–	–	–	–	–	–	–	–	–	–	–	< 50	approximately 1 log order

From US11116774B2, “Modulators of toll-like receptors for the treatment of HIV” (Gilead Sciences, Inc., priority 2014, dated 2021)
